The record followed here is US8008488B2 (Abbott GmbH & Co. KG, priority 2003, dated 2011).

For assay [1], the target named is T1, human dopamine D3 receptors (Homo sapiens, UniProt P35462).
T1 construct: expressed in transfected cells
As to the kind of experiment: Dopamine D3 receptor binding, displacement of [125I]-iodosulpride. The conditions noted are these: membranes from HEK-293 cells with stably expressed human D3 receptors, 0.1 nM [125I]-iodosulpride. As for the experimental part: (§1) The substance to be tested was dissolved either in methanol/Chremophor® (BASF-AG) or in dimethyl sulfoxide and then diluted with water to the desired concentration.
(§2) Triplicate mixtures were carried out.
The incubation buffer contained 50 mM Tris, 120 mM NaCl, 5 mM KCl, 2 mM CaCl2, 2 mM MgCl2 and 0.1% bovine serum albumin, 10 μM quinolone, 0.1% ascorbic acid (prepared fresh each day). The buffer was adjusted to pH 7.4 with HCl.
(§3) Measurement and Evaluation:
(§4) After incubation at 25° C. for 60 minutes, the mixtures were filtered under vacuum through Whatman GF/B glass fiber filters using a cell harvester. The filters were transferred by a filter transfer system into scintillation vials. After addition of 4 ml of Ultima Gold® (Packard), the samples were shaken for one hour and then the radioactivity was calculated in a beta counter (Packard, Tricarb 2000 or 2200CA). The cp values were converted into dpm by means of a standard quench series with the aid of the instrument's own program.
(§5) Evaluation of the inhibition plots took place by iterative nonlinear regression analysis using the Statistical Analysis System (SAS) similar to the “LIGAND” program described by Munson and Rodbard.
(In general: Loss of bound radioactivity is the signal in a displacement assay; it reports binding, not function.)

For assay [2], the target named is T2, human dopamine D2L receptors (long isoform) (Homo sapiens, UniProt P14416).
T2 construct: expressed in transfected cells
As to the kind of experiment: Dopamine D2L receptor binding, displacement of [125I]-iodospiperone. The conditions noted are these: *Ki(D2L)/Ki(D3), HEK-293 membranes, 0.01 nM [125I]-iodospiperone. On the procedure: as §1, §2
The incubation buffer contained 50 mM Tris, 120 mM NaCl, 5 mM KCl, 2 mM CaCl2, 2 mM MgCl2 and 0.1% bovine serum albumin. The buffer was adjusted to pH 7.4 with HCl.
as §3, §4, §5

Counter-ions that a name gives are not always drawn.

T1 sequence (P35462 whole entry): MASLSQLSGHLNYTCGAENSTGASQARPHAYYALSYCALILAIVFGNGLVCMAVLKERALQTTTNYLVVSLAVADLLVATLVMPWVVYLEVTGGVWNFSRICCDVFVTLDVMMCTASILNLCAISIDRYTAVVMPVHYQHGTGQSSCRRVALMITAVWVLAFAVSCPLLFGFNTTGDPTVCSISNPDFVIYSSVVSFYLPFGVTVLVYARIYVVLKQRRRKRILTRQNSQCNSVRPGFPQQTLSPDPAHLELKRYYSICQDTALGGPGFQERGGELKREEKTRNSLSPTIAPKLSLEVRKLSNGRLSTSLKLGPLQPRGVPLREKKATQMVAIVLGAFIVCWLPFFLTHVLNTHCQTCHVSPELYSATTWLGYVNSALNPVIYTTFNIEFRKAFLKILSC
T2 sequence (P14416 whole entry, canonical isoform): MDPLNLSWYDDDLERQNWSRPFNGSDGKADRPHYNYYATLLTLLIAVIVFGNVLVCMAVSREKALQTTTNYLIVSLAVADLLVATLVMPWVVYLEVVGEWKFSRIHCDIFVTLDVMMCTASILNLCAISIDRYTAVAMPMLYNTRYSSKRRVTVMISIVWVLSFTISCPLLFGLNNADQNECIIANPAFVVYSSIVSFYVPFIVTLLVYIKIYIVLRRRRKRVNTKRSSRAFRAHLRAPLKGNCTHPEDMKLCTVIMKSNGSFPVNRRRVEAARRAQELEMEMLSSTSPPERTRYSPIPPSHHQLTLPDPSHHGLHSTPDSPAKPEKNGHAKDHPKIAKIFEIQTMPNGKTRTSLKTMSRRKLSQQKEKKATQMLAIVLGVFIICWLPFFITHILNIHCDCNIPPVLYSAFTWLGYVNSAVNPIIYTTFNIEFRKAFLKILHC

The Ki is the dissociation constant of the complex between target and ligand, obtained from inhibition or displacement. A low value points to a stronger hold on the target. Consider `CCCc1cc(N2CCN(C(C)CCCn3cc(C)c(=O)[nH]c3=O)CC2)nc(C(C)(C)C)n1.Cl` (centres unmarked) [Example 38, 4-(2-tert-Butyl-6-propylpyrimidin-4-yl)-1-[1-methyl-4-(5-methyl-2,4-dioxo-3,4-dihydropyrimidin-1 (2H)-yl)butyl]piperazin-1-ium chloride], for which, in assay [1], the inhibition constant Ki turned out to be 5.33 nM. Besides, in assay [2], the “Selectivity D3 vs. D2L*” value was found to be 103.

Regarding `CCCc1cc(N2CCN(CCCCn3ccc(-c4ccc(C)cc4)nc3=O)CC2)nc(C(C)(C)C)n1` [Example 75, 4-(2-tert-Butyl-6-propylpyrimidin-4-yl)-1-[4-(2-oxo-4-(p-tolyl)-2H-pyrimidin-1-yl)butyl]piperazine 1-fumarate], the Ki in assay [1] worked out at 2.3 nM. Besides, the “Selectivity D3 vs. D2L*” value in assay [2] is recorded as 80.

Regarding `O=c1[nH]c(=O)n(CCCCN2CCN(c3cccc(Cl)c3Cl)CC2)cc1F` [Example 79, 1-{4-[4-(2,3-Dichlorophenyl)piperazin-1-yl]butyl}-5-fluoro-1H-pyrimidine-2,4-dione], the Ki in assay [1] was found to be 0.86 nM. Further, in assay [2], the “Selectivity D3 vs. D2L*” value was 30.

With `COc1cc(OC)cc(N2CCN(CCCCn3cc(C)c(=O)[nH]c3=O)CC2)c1` [Example 134, 1-{4-[4-(3,5-Dimethoxyphenyl)piperazin-1-yl]butyl}-5-methyl-1H-pyrimidine-2,4-dione], the Ki in assay [1] came out at 13.1 nM. Further, in assay [2], the “Selectivity D3 vs. D2L*” value was 55.

Turning to `CC(C)(C)c1nc(N2CCN(CCCCn3cc(F)c(=O)[nH]c3=O)CC2)cc(C(F)(F)F)n1.Cl` [Example 16, 1-[2-tert-Butyl-6-(trifluoromethyl)pyrimidin-4-yl]-4-[4-(5-fluoro-2,4-dioxo-3,4-dihydro-pyrimidin-1 (2H)-yl)butyl]piperazin-4-ium chloride], the Ki in assay [1] came to 2.99 nM. In addition, the “Selectivity D3 vs. D2L*” value in assay [2] stood at 201.

For the molecule `Cc1cn(CCCCN2CCN(c3cccc(C(F)(F)F)c3)CC2)c(=O)[nH]c1=O` [Example 129, 5-Methyl-1-{4-[4-(3-trifluoromethylphenyl)piperazin-1-yl]butyl}-1H-pyrimidine-2,4-dione], the affinity in assay [1] corresponds to a Ki of 1.3 nM. The “Selectivity D3 vs. D2L*” value in assay [2] was found to be 48.

In assay [1], `CCCc1cc(N2CCN(C(C)CCCn3cc(C)c(=O)[nH]c3=O)CC2)nc(C(C)(C)C)n1` (single isomer, unassigned; (+)) [Example 63, (+)-1-{4-[4-(2-tert-Butyl-6-propylpyrimidin-4-yl)piperazin-1-yl]pentyl}-5-methyl-1H-pyrimidine-2,4-dione] gave a Ki of 2.97 nM. Besides, the “Selectivity D3 vs. D2L*” value in assay [2] worked out at 65.

In assay [1], `Cc1cn(CCCCN2CCN(c3cccc(Cl)c3Cl)CC2)c(=O)[nH]c1=O` [Example 135, 1-{4-[4-(2,3-Dichlorophenyl)piperazin-1-yl]butyl}-5-methyl-1H-pyrimidine-2,4-dione] had a Ki of 0.27 nM. For the same molecule, the “Selectivity D3 vs. D2L*” value in assay [2] is recorded as 87.

In assay [1], `CCCc1cc(N2CCN(C(C)CCCn3cc(C)c(=O)[nH]c3=O)CC2)nc(C(C)(C)C)n1` (single isomer, unassigned; (-)) [Example 76, (−)-1-{4-[4-(2-tert-Butyl-6-propylpyrimidin-4-yl)piperazin-1-yl]pentyl}-5-methyl-1H-pyrimidine-2,4-dione] came in with an inhibition constant (Ki) of 3.03 nM. Also, the “Selectivity D3 vs. D2L*” value in assay [2] came to 103.

In turn, `C/C(=C\CN1CCN(c2cc(C(F)(F)F)nc(C(C)(C)C)n2)CC1)Cn1cc(C)c(=O)[nH]c1=O` [Example 36, 1-((2E)-4-{4-[2-tert-Butyl-6-(trifluoromethyl)pyrimidin-4-yl]piperazin-1-yl}-2-methylbut-2-en-1-yl)-5-methylpyrimidine-2,4(1H,3H)-dione] displayed a Ki in assay [1] of 3.82 nM. Besides, the “Selectivity D3 vs. D2L*” value in assay [2] turned out to be 209.

Turning to `Cc1cn(CCCCN2CCN(c3cc(C(F)(F)F)nc(C(C)(C)C)n3)CC2)c(=O)nc1-c1ccccc1` [Example 26, 1-(4-{4-[2-tert-Butyl-6-(trifluoromethyl)pyrimidin-4-yl]piperazin-1-yl}butyl)-5-methyl-4-phenylpyrimidin-2(1H)-one], the Ki in assay [1] was 8.1 nM. In addition, the “Selectivity D3 vs. D2L*” value in assay [2] is recorded as 55.

For the molecule `CCCc1cc(N2CCN(C/C=C(\C)Cn3cc(C)c(=O)[nH]c3=O)CC2)nc(C(C)(C)C)n1` [Example 65], affinity in assay [1] was put at a Ki of 3.31 nM. In addition, the “Selectivity D3 vs. D2L*” value in assay [2] is 62.

In assay [1], `CCc1ccn(CCCCN2CCN(c3cc(C(F)(F)F)nc(C(C)(C)C)n3)CC2)c(=O)n1` [Example 95, 4-(2-tert-Butyl-6-trifluoromethylpyrimidin-4-yl)-1-[4-(4-ethyl-2-oxo-2H-pyrimidin-1-yl)butyl]piperazin-1-ium fumarate] displayed a Ki of 6.53 nM. Moreover, the “Selectivity D3 vs. D2L*” value in assay [2] worked out at 45.

In turn, `CCCc1cc(N2CCN(CCCCn3ccc(-c4cccc(F)c4)nc3=O)CC2)nc(C(C)(C)C)n1` [Example 72, 4-(2-tert-Butyl-6-propylpyrimidin-4-yl)-1-{4-[4-(3-fluorophenyl)-2-oxo-2H-pyrimidin-1-yl]butyl}piperazin-1-ium fumarate] showed a Ki in assay [1] of 1.49 nM. Moreover, the “Selectivity D3 vs. D2L*” value in assay [2] was 54.

For the molecule `CC(C)(C)c1nc(N2CCN(CCCCn3ccc(-c4cccc(F)c4)nc3=O)CC2)cc(C(F)(F)F)n1` [Example 73, 4-(2-tert-Butyl-6-trifluoromethylpyrimidin-4-yl)-1-{4-[4-(3-fluorophenyl)-2-oxo-2H-pyrimidin-1-yl]butyl}piperazin-1-ium fumarate], the Ki in assay [1] was 9.3 nM. Moreover, in assay [2], the “Selectivity D3 vs. D2L*” value is on record as 31.

As to `CCCc1cc(N2CCN(CCCCn3ccc(OCC)nc3=O)CC2)nc(C(C)(C)C)n1` [Example 86, 4-(2-tert-Butyl-6-propylpyrimidin-4-yl)-1-[4-(4-ethoxy-2-oxo-2H-pyrimidin-1-yl)butyl]piperazin-1-ium fumarate], affinity in assay [1] was put at a Ki of 2.44 nM. Also, in assay [2], the “Selectivity D3 vs. D2L*” value was determined as 43.

In turn, `Cc1ccn(CCCCN2CCN(c3cc(C(F)(F)F)nc(C(C)(C)C)n3)CC2)c(=O)n1` [Example 8, 1-(4-{4-[2-tert-Butyl-6-(trifluoromethyl)pyrimidin-4-yl]piperazin-1-yl}butyl)-4-methylpyrimidin-2(1H)-one] had a Ki in assay [1] of 4.4 nM. Moreover, the “Selectivity D3 vs. D2L*” value in assay [2] was 71.

Take `Cc1cn(CCCCN2CCN(c3cc(C(F)(F)F)nc(C(C)(C)C)n3)CC2)c(=O)nc1S` [Example 2, 1-(4-{4-[2-tert-Butyl-6-(trifluoromethyl)pyrimidin-4-yl]piperazin-1-yl}butyl)-4-mercapto-5-methylpyrimidin-2(1H)-one]: affinity in assay [1] was put at a Ki of 3.23 nM. Further, the “Selectivity D3 vs. D2L*” value in assay [2] is on record as 88.

Consider `Cc1cn(CCCCN2CCN(c3cc(C(F)(F)F)nc(C(C)(C)C)n3)CC2)c(=O)nc1NCc1ccccc1` [Example 11, 4-(Benzylamino)-1-(4-{4-[2-tert-butyl-6-(trifluoromethyl)pyrimidin-4-yl]piperazin-1-yl}butyl)-5-methylpyrimidin-2(1H)-one], for which the inhibition constant Ki in assay [1] was found to be 3.14 nM. Also, the “Selectivity D3 vs. D2L*” value in assay [2] stood at 65.

`O=c1nc(-c2ccccc2)ccn1CCCCN1CCN(c2cccc(Cl)c2Cl)CC1` [Example 81, 4-(2,3-Dichlorophenyl)-1-[4-(2-oxo-4-phenyl-2H-pyrimidin-1-yl)butyl]piperazin-1-ium fumarate]: the affinity in assay [1] corresponds to a Ki of 2.56 nM. Further, the “Selectivity D3 vs. D2L*” value in assay [2] is 94.

`CC(CCCn1ccc(=O)[nH]c1=O)N1CCN(c2cc(C(F)(F)F)nc(C(C)(C)C)n2)CC1` (centres unmarked) [Example 62, 1-{4-[4-(2-tert-Butyl-6-trifluoromethylpyrimidin-4-yl)piperazin-1-yl]pentyl}-1H-pyrimidine-2,4-dione]: in assay [1], the affinity corresponds to a Ki of 11 nM. In assay [2], the “Selectivity D3 vs. D2L*” value was 49.

`CCCc1cc(N2CCN(CCCCn3ccc(-c4ccc(F)cc4)nc3=O)CC2)nc(C(C)(C)C)n1` [Example 44, 1-{4-[4-(2-tert-Butyl-6-propylpyrimidin-4-yl)piperazin-1-yl]butyl}-4-(4-fluorophenyl)-1H-pyrimidin-2-one] registered a Ki in assay [1] of 0.63 nM. Further, the “Selectivity D3 vs. D2L*” value in assay [2] stood at 158.

Consider `C/C(=C\CN1CCN(c2cc(C(F)(F)F)nc(C(C)(C)C)n2)CC1)Cn1ccc(=O)[nH]c1=O` [Example 46, 1-(2E)-{4-[4-(2-tert-Butyl-6-trifluoromethylpyrimidin-4-yl)piperazin-1-yl]-2-methylbut-2-enyl}-1H-pyrimidine-2,4-dione], for which the affinity in assay [1], expressed as Ki, was 5.41 nM. Moreover, the “Selectivity D3 vs. D2L*” value in assay [2] amounted to 43.

For the molecule `Cc1ccccc1-c1ccn(CCCCN2CCN(c3cc(C(F)(F)F)nc(C(C)(C)C)n3)CC2)c(=O)n1` [Example 60, 4-(2-tert-Butyl-6-trifluoromethylpyrimidin-4-yl)-1-[4-(2-oxo-4-(o-tolyl)-2H-pyrimidin-1-yl)butyl]piperazin-1-ium fumarate], the Ki in assay [1] worked out at 4.33 nM. Further, the “Selectivity D3 vs. D2L*” value in assay [2] worked out at 91.

In turn, `Cc1ccc(-c2ccn(CCCCN3CCN(c4cc(C(F)(F)F)nc(C(C)(C)C)n4)CC3)c(=O)n2)cc1` [Example 66, 4-(2-tert-Butyl-6-trifluoromethylpyrimidin-4-yl)-1-[4-(2-oxo-4-(p-tolyl)-2H-pyrimidin-1-yl)butyl]piperazin-1-ium fumarate] returned an inhibition constant (Ki) in assay [1] of 13.5 nM. The “Selectivity D3 vs. D2L*” value in assay [2] is recorded as 37.
